Structures are written as SMILES. Where a name gives a salt, the structure may show the parent alone.

On to `O=C(CCc1ccc(CNCC2CC2)cc1)Nc1ccc(-c2ccc(Cl)cc2)cc1` [Example 6.15, N-(4′-chlorobiphenyl-4-yl)-3-{4-[(cyclopropylmethylamino)methyl]phenyl}propionamide], for which the melting point was in the range of 191 to 192 °C.
As for `CN(Cc1ccc(/C=C/C(=O)Nc2ccc(-c3ccc(Cl)cc3)cc2)cc1)C1CCNCC1` (as salt: acetate) [Example 5.36, (E)-N-(4′-chlorobiphenyl-4-yl)-3-{4[(methylpiperidin-4-ylamino)methyl]phenyl}acrylamide×trifluoroacetic acid acetate], the figure is 207 to 208 °C.
As for `CN(Cc1ccc(CCC(=O)Nc2ccc(-c3ccc(Cl)cc3)cc2)cc1)CC1CC1` [Example 6.13, N-(4′-chlorobiphenyl-4-yl)-3-{4-[(cyclopropylmethylmethylamino)methyl]phenyl}propionamide], the melting point turned out to be 156 °C.
The compound `O=C(/C=C/c1ccc(CN2CCCC2)cc1)Nc1ccc(-c2ccc(Cl)cc2)cc1` [Example 5.13, (E)-N-(4′-chlorobiphenyl-4-yl)-3-(4-pyrrolidin-1-ylmethylphenyl)acrylamide] registered a melting point of 219 °C.
For `O=C(C#Cc1ccc(CN2CCC(N3CCCC3)CC2)cc1)Nc1ccc(-c2ccc(Cl)cc2)cc1` [Example 1.38] the value was 191 to 192 °C.
For the compound `O=C(C#Cc1ccc(CN2CCC(O)CC2)cc1)Nc1ccc(-c2ccc(Cl)cc2)cc1F` [Example 1.21, 3-[4-(4-hydroxypiperidin-1-ylmethyl)phenyl]propynoic acid-(4′-chloro-3-fluorobiphenyl-4-yl)amide], the melting point was 164 to 165 °C.
As for `COc1cc(NC(=O)C#Cc2ccc(C(F)(F)F)cc2Cl)ccc1OCCN1CCOCC1` [Example 4.273, 3-(2-chloro-4-trifluoromethylphenyl)propynoic acid-[3-methoxy-4-(2-morpholin-4-ylethoxy)phenyl]amide], the figure is 209 to 211 °C; as for `COC1CCN(Cc2ccc(C#CC(=O)Nc3ccc(-c4ccc(Cl)cc4)cc3)cc2)CC1` [Example 1.36, 3-[4-(4-methoxypiperidin-1-ylmethyl)phenyl]propynoic acid-(4′-chlorobiphenyl-4-yl)amide], 145 to 146 °C.
In turn, `CC1CCN(Cc2ccc(NC(=O)C#Cc3ccc(-c4ccc(Cl)cc4)cc3)cc2)CC1` [Example 3.14, 3-(4′-chlorobiphenyl-4-yl)propynoic acid-[4-(4-methylpiperidin-1-ylmethyl)phenyl]amide] gave a melting point of 263 to 268 °C.
For `O=C(CCc1ccc(CN2CCC(N3CCCCC3)C2)cc1)Nc1ccc(-c2ccc(Cl)cc2)cc1` (centres unmarked) [Example 6.25, N-(4′-chlorobiphenyl-4-yl)-3-[4-(3-piperidin-1-ylpyrrolidin-1-ylmethyl)phenyl]propionamide] the value was 168.8 °C.
As for `C[C@@H]1C[C@H](C)CN(Cc2ccc(CCC(=O)Nc3ccc(-c4ccc(Cl)cc4)cc3)cc2)C1` [Example 6.26, N-(4′-chlorobiphenyl-4-yl)-3-[4-((3S,5R)-3,5-dimethylpiperidin-1-ylmethyl)phenyl]propionamide], the figure is 164 to 169 °C; as for `CCN(CC)CCOc1ccc(NC(=O)C#Cc2ccc(-c3ccccc3)cc2Cl)cc1Cl` (as salt: hydrochloride) [Example 3.32, 3-(3-chlorobiphenyl-4-yl)propynoic acid-[3-chloro-4-(2-diethylaminoethoxy)phenyl]amide hydrochloride], 195 to 200 °C.
In turn, `O=C(C#Cc1ccc(C(F)(F)F)cc1Cl)Nc1ccc(OCCn2cccn2)cc1` [Example 3.43, 3-(2-chloro-4-trifluoromethylphenyl)propynoic acid-[4-(2-pyrazol-1-ylethoxy)phenyl]amide] displayed a melting point of 120 to 125 °C.
For `O=C(C#Cc1ccc(C(F)(F)F)cc1Cl)Nc1ccc(CN2CCCCC2)cc1` (as salt: hydrochloride) [Example 3.41, 3-(2-chloro-4-trifluoromethylphenyl)propynoic acid(4-piperidin-1-ylmethylphenyl)amide hydrochloride] the value was 193 to 195 °C.

The values are drawn from patent US7592373B2 (Boehringer Ingelheim International GmbH, priority 2003, dated 2009).
